{
  "source": "patent US8653263B2",
  "about": "(Janssen Pharmaceutica, priority 2009, dated 2014)",
  "data": [
    {"target": "human orexin-2 receptor (Homo sapiens (Human), UniProt O43614)", "sequence (O43614 whole entry)": "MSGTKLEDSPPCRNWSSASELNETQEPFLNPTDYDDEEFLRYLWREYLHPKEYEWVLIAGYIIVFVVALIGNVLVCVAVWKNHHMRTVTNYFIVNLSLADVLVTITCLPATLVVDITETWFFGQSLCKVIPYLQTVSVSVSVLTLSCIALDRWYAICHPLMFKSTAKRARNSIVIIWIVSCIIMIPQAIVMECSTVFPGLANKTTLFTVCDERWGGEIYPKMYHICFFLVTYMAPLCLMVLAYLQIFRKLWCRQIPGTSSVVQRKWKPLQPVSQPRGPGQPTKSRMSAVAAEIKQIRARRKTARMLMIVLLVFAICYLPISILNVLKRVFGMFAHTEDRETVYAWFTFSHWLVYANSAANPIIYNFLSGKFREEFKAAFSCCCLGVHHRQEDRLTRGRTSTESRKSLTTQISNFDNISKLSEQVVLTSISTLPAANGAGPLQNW", "test": "Human orexin 2 receptor radioligand binding ([3H]-EMPA competition)", "conditions": "HEK293 cells stably expressing human orexin-2 receptor; [3H]-EMPA 5 nM final; apparent Ki=IC50/(1+C/Kd), Kd=2 nM; read-out: OR 2 Ki", "units": {"Ki": "nM"}, "values": [
      {"smiles": "Cc1cc(N2CC3CN(C(=O)c4c(F)cccc4-c4ncccn4)CC3C2)nc(C(F)(F)F)n1", "note": "(stereo not shown) [Example 117, 2-[(2-Fluoro-6-pyrimidin-2-ylphenyl)carbonyl]-5-[6-methyl-2-(trifluoromethyl)pyrimidin-4-yl]octahydropyrrolo[3,4-c]pyrrole]", "Ki": 24},
      {"smiles": "Cc1cc(N(C)C)nc(N2CC3CN(C(=O)c4ccccc4-n4nccn4)CC3C2)n1", "note": "(stereo not shown) [Example 119, N,N,6-Trimethyl-2-[5-{[2-(2H-1,2,3-triazol-2-yl)phenyl]carbonyl}hexahydropyrrolo[3,4-c]pyrrol-2(1H)-yl]pyrimidin-4-amine]", "Ki": 51},
      {"smiles": "Cc1cc(N2CC3CN(C(=O)c4ccccc4-n4nccn4)CC3C2)nc(N(C)C)n1", "note": "(stereo not shown) [Example 120, N,N,4-Trimethyl-6-[5-{[2-(2H-1,2,3-triazol-2-yl)phenyl]carbonyl}hexahydropyrrolo[3,4-c]pyrrol-2(1H)-yl]pyrimidin-2-amine]", "Ki": 71},
      {"smiles": "CN(C)c1nc(N2CC3CN(C(=O)c4ccccc4-n4nccn4)CC3C2)cc(C(F)(F)F)n1", "note": "(stereo not shown) [Example 121, N,N-Dimethyl-4-[5-{[2-(2H-1,2,3-triazol-2-yl)phenyl]carbonyl}hexahydropyrrolo[3,4-c]pyrrol-2(1H)-yl]-6-(trifluoromethyl)pyrimidin-2-amine]", "Ki": 15},
      {"smiles": "Cc1cc(N2CC3CN(C(=O)c4ccccc4-n4nccn4)CC3C2)nc(C)n1", "note": "(stereo not shown) [Example 122, 2-(2,6-Dimethylpyrimidin-4-yl)-5-{[2-(2H-1,2,3-triazol-2-yl)phenyl]carbonyl}octahydropyrrolo[3,4-c]pyrrole]", "Ki": 865},
      {"smiles": "Cc1ccc(-n2nccn2)c(C(=O)N2CC3CN(c4nc(C)cnc4C)CC3C2)c1", "note": "(stereo not shown) [Example 123, [5-(3,6-Dimethyl-pyrazin-2-yl)-hexahydro-pyrrolo[3,4-c]pyrrol-2-yl]-(5-methyl-2-[1,2,3]triazol-2-yl-phenyl)-methanone]", "Ki": 44},
      {"smiles": "Cc1cc(N(C)C)nc(N2CC3CN(C(=O)c4cc(F)ccc4-n4nccn4)CC3C2)n1", "note": "(stereo not shown) [Example 124, 2-[5-{[5-Fluoro-2-(2H-1,2,3-triazol-2-yl)phenyl]carbonyl}hexahydropyrrolo[3,4-c]pyrrol-2(1H)-yl]-N,N,6-trimethylpyrimidin-4-amine]", "Ki": 422},
      {"smiles": "COc1ccc(N2CC3CN(C(=O)c4ccccc4-c4cccs4)CC3C2)nc1", "note": "(stereo not shown) [Example 125, 2-(5-Methoxypyridin-2-yl)-5-[(2-thiophen-2-ylphenyl)carbonyl]octahydropyrrolo[3,4-c]pyrrole]", "Ki": 901},
      {"smiles": "CCOc1ccc2ccccc2c1C(=O)N1CC2CN(c3nccc(-c4ccccc4)n3)CC2C1", "note": "(stereo not shown) [Example 126, 2-[(2-Ethoxynaphthalen-1-yl)carbonyl]-5-(4-phenylpyrimidin-2-yl)octahydro pyrrolo[3,4-c]pyrrole]", "Ki": 95},
      {"smiles": "Cc1ccc(-n2nccn2)c(C(=O)N2CC3CN(c4nccc(-c5ccccc5)n4)CC3C2)c1", "note": "(stereo not shown) [Example 127, 2-{[5-Methyl-2-(2H-1,2,3-triazol-2-yl)phenyl]carbonyl}-5-(4-phenylpyrimidin-2-yl)octahydropyrrolo[3,4-c]pyrrole]", "Ki": 55},
      {"smiles": "COc1cc(OC)nc(N2CC3CN(C(=O)c4cc(C)ccc4-n4nccn4)CC3C2)n1", "note": "(stereo not shown) [Example 129, 2-(4,6-Dimethoxypyrimidin-2-yl)-5-{[5-methyl-2-(2H-1,2,3-triazol-2-yl)phenyl]carbonyl}octahydropyrrolo[3,4-c]pyrrole]", "Ki": 111},
      {"smiles": "O=C(c1ccccc1-n1nccn1)N1CC2CN(c3nccc(-c4ccccc4)n3)CC2C1", "note": "(stereo not shown) [Example 131, 2-(4-Phenylpyrimidin-2-yl)-5-{[2-(2H-1,2,3-triazol-2-yl)phenyl]carbonyl}octahydro pyrrolo[3,4-c]pyrrole]", "Ki": 75},
      {"smiles": "Cc1cc(C)nc(N2CC3CN(C(=O)c4nc(C)sc4-c4ccccc4F)CC3C2)n1", "note": "(stereo not shown) [Example 132, 2-(4,6-Dimethylpyrimidin-2-yl)-5-{[5-(2-fluorophenyl)-2-methyl-1,3-thiazol-4-yl]carbonyl}octahydropyrrolo[3,4-c]pyrrole]", "Ki": 125},
      {"smiles": "Cc1cccc(N2CC3CN(C(=O)c4ccccc4-c4cccs4)CC3C2)n1", "note": "(stereo not shown) [Example 134, 2-(6-Methylpyridin-2-yl)-5-[(2-thiophen-2-ylphenyl)carbonyl]octahydropyrrolo[3,4-c]pyrrole]", "Ki": 102},
      {"smiles": "Cc1ccnc(N2CC3CN(C(=O)c4ccccc4-n4nccn4)CC3C2)n1", "note": "(stereo not shown) [Example 135, 2-(4-Methylpyrimidin-2-yl)-5-{[2-(2H-1,2,3-triazol-2-yl)phenyl]carbonyl}octahydro pyrrolo[3,4-c]pyrrole]", "Ki": 90},
      {"smiles": "Cc1ccnc(N2CC3CN(C(=O)c4ccccc4-c4cccs4)CC3C2)c1", "note": "(stereo not shown) [Example 136, 2-(4-Methylpyridin-2-yl)-5-[(2-thiophen-2-ylphenyl)carbonyl]octahydropyrrolo[3,4-c]pyrrole]", "Ki": 104},
      {"smiles": "COc1cccc(N2CC3CN(C(=O)c4ccccc4-c4cccs4)CC3C2)n1", "note": "(stereo not shown) [Example 137, 2-(6-Methoxypyridin-2-yl)-5-[(2-thiophen-2-ylphenyl)carbonyl]octahydro pyrrolo[3,4-c]pyrrole]", "Ki": 50},
      {"smiles": "COc1cc(OC)nc(N2CC3CN(C(=O)c4ccccc4-c4cccs4)CC3C2)n1", "note": "(stereo not shown) [Example 138, 2-(4,6-Dimethoxypyrimidin-2-yl)-5-[(2-thiophen-2-ylphenyl)carbonyl]octahydro pyrrolo[3,4-c]pyrrole]", "Ki": 30},
      {"smiles": "O=C(c1ccccc1-c1cccs1)N1CC2CN(c3nc4ccccc4o3)CC2C1", "note": "(stereo not shown) [Example 139, 2-{5-[(2-Thiophen-2-ylphenyl)carbonyl]hexahydropyrrolo[3,4-c]pyrrol-2(1H)-yl}-1,3-benzoxazole]", "Ki": 63},
      {"smiles": "O=C(c1ccccc1-c1cccs1)N1CC2CN(c3ncccc3C(F)(F)F)CC2C1", "note": "(stereo not shown) [Example 140, 2-[(2-Thiophen-2-ylphenyl)carbonyl]-5-[3-(trifluoromethyl)pyridin-2-yl]octahydro pyrrolo[3,4-c]pyrrole]", "Ki": 119},
      {"smiles": "O=C(c1ccccc1-c1nnc[nH]1)N1CC2CN(c3nccc(-c4ccccc4)n3)CC2C1", "note": "(stereo not shown) [Example 141, [5-(4-Phenyl-pyrimidin-2-yl)-hexahydro-pyrrolo[3,4-c]pyrrol-2-yl]-[2-(4H-[1,2,4]triazol-3-yl)-phenyl]-methanone]", "Ki": 1030},
      {"smiles": "COc1cc(OC)nc(N2CC3CN(C(=O)c4nc(C)sc4-c4ccccc4F)CC3C2)n1", "note": "(stereo not shown) [Example 142, 2-(4,6-Dimethoxypyrimidin-2-yl)-5-{[5-(2-fluorophenyl)-2-methyl-1,3-thiazol-4-yl]carbonyl}octahydropyrrolo[3,4-c]pyrrole]", "Ki": 315},
      {"smiles": "O=C(c1ccccc1-n1nccn1)N1CC2CN(c3nccc(-c4cccs4)n3)CC2C1", "note": "(stereo not shown) [Example 143, 2-(4-Thiophen-2-ylpyrimidin-2-yl)-5-{[2-(2H-1,2,3-triazol-2-yl)phenyl]carbonyl}octahydropyrrolo[3,4-c]pyrrole]", "Ki": 81},
      {"smiles": "O=C(c1ccccc1-n1nccn1)N1CC2CN(c3nc4ccccc4o3)CC2C1", "note": "(stereo not shown) [Example 144, 2-[5-{[2-(2H-1,2,3-Triazol-2-yl)phenyl]carbonyl}hexahydropyrrolo[3,4-c]pyrrol-2(1H)-yl]-1,3-benzoxazole]", "Ki": 87},
      {"smiles": "CCOc1ccc2ccccc2c1C(=O)N1CC2CN(c3cnc4ccccc4n3)CC2C1", "note": "(stereo not shown) [Example 145, 2-{5-[(2-Ethoxynaphthalen-1-yl)carbonyl]hexahydropyrrolo[3,4-c]pyrrol-2(1H)-yl}quinoxaline]", "Ki": 45}
    ]}
  ]
}
